Measured values reported in ChEMBL document CHEMBL4004838, “Design and synthesis of novel phenyl -1, 4-beta-carboline-hybrid molecules as potential anticancer agents” (Eur J Med Chem, 2017).

What was measured:
Format in all cases: functional
SK-MEL-5 = test: Growth inhibition of human SK-MEL-5 cells assessed as cell growth at 1 uM incubated for 48 hrs by sulforhodamine B assay relative to control; details: SK-MEL-5, 48 h, read-out: Activity
SW-620 = test: Growth inhibition of human SW620 cells assessed as cell growth at 0.01 uM incubated for 48 hrs by sulforhodamine B assay relative to control; details: SW-620, 48 h, read-out: Activity
K562 = test: Growth inhibition of human K562 cells incubated for 48 hrs by sulforhodamine B assay; details: K562, 48 h
HCC 2998 = test: Growth inhibition of human HCC2998 cells assessed as cell growth at 100 uM incubated for 48 hrs by sulforhodamine B assay relative to control; details: HCC 2998, 48 h, read-out: Activity
MOLT-4 = test: Growth inhibition of human MOLT4 cells assessed as cell growth at 0.01 uM incubated for 48 hrs by sulforhodamine B assay relative to control; details: MOLT-4, 48 h, read-out: Activity
NCI-H322M = test: Growth inhibition of human NCI-H322M cells incubated for 48 hrs by sulforhodamine B assay
EKVX [1] = test: Growth inhibition of human EKVX cells assessed as cell growth at 0.1 uM incubated for 48 hrs by sulforhodamine B assay relative to control; details: read-out: Activity
NCI-H23 = test: Growth inhibition of human NCI-H23 cells assessed as cell growth at 0.01 uM incubated for 48 hrs by sulforhodamine B assay relative to control; details: NCI-H23, 48 h, read-out: Activity
MDA-MB-231 = test: Growth inhibition of human MDA-MB-231 cells assessed as cell growth at 0.01 uM incubated for 48 hrs by sulforhodamine B assay relative to control; details: MDA-MB-231, 48 h, read-out: Activity
COLO 205 = test: Growth inhibition of human COLO205 cells assessed as cell growth at 0.1 uM incubated for 48 hrs by sulforhodamine B assay relative to control; details: COLO 205, 48 h, read-out: Activity
IGROV-1 = test: Growth inhibition of human IGROV1 cells assessed as cell growth at 1 uM incubated for 48 hrs by sulforhodamine B assay relative to control; details: IGROV-1, 48 h, read-out: Activity
TK-10 = test: Growth inhibition of human TK10 cells incubated for 48 hrs by sulforhodamine B assay; details: TK-10, 48 h
SNB-75 = test: Growth inhibition of human SNB75 cells assessed as cell growth at 0.1 uM incubated for 48 hrs by sulforhodamine B assay relative to control; details: SNB-75, 48 h, read-out: Activity
Malme-3M [2] = test: Growth inhibition of human MALME-3M cells assessed as cell growth at 100 uM incubated for 48 hrs by sulforhodamine B assay relative to control; details: read-out: Activity
Malme-3M [3] = test: Growth inhibition of human MALME-3M cells assessed as cell growth at 0.1 uM incubated for 48 hrs by sulforhodamine B assay relative to control; details: read-out: Activity
SK-OV-3 = test: Growth inhibition of human SKOV3 cells assessed as cell growth at 100 uM incubated for 48 hrs by sulforhodamine B assay relative to control; details: SK-OV-3, 48 h, read-out: Activity
RXF 393 = test: Growth inhibition of human RXF393 cells assessed as cell growth at 0.01 uM incubated for 48 hrs by sulforhodamine B assay relative to control; details: RXF 393, 48 h, read-out: Activity
NCI-H522 = test: Growth inhibition of human NCI-H522 cells incubated for 48 hrs by sulforhodamine B assay; details: NCI-H522, 48 h
A498 = test: Growth inhibition of human A498 cells assessed as cell growth at 0.1 uM incubated for 48 hrs by sulforhodamine B assay relative to control; details: A498, 48 h, read-out: Activity
SF-539 = test: Growth inhibition of human SF539 cells assessed as cell growth at 0.1 uM incubated for 48 hrs by sulforhodamine B assay relative to control; details: SF-539, 48 h, read-out: Activity
SR [4] = test: Growth inhibition of human SR cells assessed as cell growth at 0.1 uM incubated for 48 hrs by sulforhodamine B assay relative to control; details: read-out: Activity
HCT-15 = test: Growth inhibition of human HCT15 cells assessed as cell growth at 1 uM incubated for 48 hrs by sulforhodamine B assay relative to control; details: HCT-15, 48 h, read-out: Activity
SNB-19 = test: Growth inhibition of human SNB19 cells assessed as cell growth at 0.1 uM incubated for 48 hrs by sulforhodamine B assay relative to control; details: SNB-19, 48 h, read-out: Activity
OVCAR-3 = test: Growth inhibition of human OVCAR3 cells incubated for 48 hrs by sulforhodamine B assay; details: OVCAR-3, 48 h
SR [5] = test: Growth inhibition of human SR cells assessed as cell growth at 100 uM incubated for 48 hrs by sulforhodamine B assay relative to control; details: read-out: Activity
Hs-578T = test: Growth inhibition of human Hs 578T cells assessed as cell growth at 0.1 uM incubated for 48 hrs by sulforhodamine B assay relative to control; details: read-out: Activity
A549 [6] = test: Growth inhibition of human A549/ATCC cells incubated for 48 hrs by sulforhodamine B assay; details: A549, 48 h
LOX IMVI = test: Growth inhibition of human LOXIMVI cells assessed as cell growth at 0.01 uM incubated for 48 hrs by sulforhodamine B assay relative to control; details: read-out: Activity
A549 [7] = test: Growth inhibition of human A549/ATCC cells assessed as cell growth at 0.01 uM incubated for 48 hrs by sulforhodamine B assay relative to control; details: A549, 48 h, read-out: Activity
EKVX [8] = test: Growth inhibition of human EKVX cells assessed as cell growth at 0.01 uM incubated for 48 hrs by sulforhodamine B assay relative to control; details: read-out: Activity
EKVX [9] = test: Growth inhibition of human EKVX cells assessed as cell growth at 100 uM incubated for 48 hrs by sulforhodamine B assay relative to control; details: read-out: Activity
[10] = read-out: LC50 (the source's name)
[11] = read-out: pLC50 (the source's name) (converted)

**Q.** Which growth at 1 µM (SK-MEL-5) does the source give for `c1ccc2[nH]c(-c3ccc(-c4nccc5c4[nH]c4ccccc45)cc3)nc2c1` here?
**A.** Its growth at 1 µM is 94%.

**Q.** And the growth at 0.01 µM (SW-620)?
**A.** The growth at 0.01 µM was 103%.

**Q.** And the GI50 (K562; read-out: GI50)?
**A.** The GI50 was 2.33 µM.

**Q.** And the CC50 (K562; [10])?
**A.** The CC50 was 4.24 µM.

**Q.** And the TGI (K562; read-out: TGI)?
**A.** Its TGI is 5.47 µM.

**Q.** What about the GI50 (K562; read-out: pGI50 (converted)) of the same compound?
**A.** The GI50 was 2.34 µM.

**Q.** And the CC50 (K562; [11])?
**A.** Its CC50 is 42.7 µM.

**Q.** What about the TGI (K562; read-out: pTGI (converted)) of the same compound?
**A.** Its TGI is 5.5 µM.

**Q.** And the growth at 100 µM (HCC 2998)?
**A.** The growth at 100 µM was 76%.

**Q.** And the growth at 0.01 µM (MOLT-4)?
**A.** The growth at 0.01 µM was 96%.

**Q.** What about the GI50 (NCI-H322M; read-out: GI50) of the same compound?
**A.** The GI50 was 2.86 µM.

**Q.** And the CC50 (NCI-H322M; [10])?
**A.** The CC50 was 4.41 µM.

**Q.** And the TGI (NCI-H322M; read-out: TGI)?
**A.** Its TGI is 8.9 µM.

**Q.** What about the GI50 (NCI-H322M; read-out: pGI50 (converted)) of the same compound?
**A.** The GI50 was 2.88 µM.

**Q.** What about the CC50 (NCI-H322M; [11]) of the same compound?
**A.** Its CC50 is 43.7 µM.

**Q.** What about the TGI (NCI-H322M; read-out: pTGI (converted)) of the same compound?
**A.** The TGI was 8.91 µM.

**Q.** And the growth at 0.1 µM (EKVX [1])?
**A.** Its growth at 0.1 µM is 96%.

**Q.** And the growth at 0.01 µM (NCI-H23)?
**A.** Its growth at 0.01 µM is 95%.

**Q.** What about the growth at 0.01 µM (MDA-MB-231) of the same compound?
**A.** The growth at 0.01 µM was 90%.

**Q.** And the growth at 0.1 µM (COLO 205)?
**A.** The growth at 0.1 µM was 97%.

**Q.** What about the growth at 1 µM (IGROV-1) of the same compound?
**A.** Its growth at 1 µM is 102%.

**Q.** What about the GI50 (TK-10; read-out: GI50) of the same compound?
**A.** Its GI50 is 2.07 µM.

**Q.** What about the CC50 (TK-10; [10]) of the same compound?
**A.** Its CC50 is 1.08 µM.

**Q.** And the TGI (TK-10; read-out: TGI)?
**A.** Its TGI is 4.59 µM.

**Q.** And the GI50 (TK-10; read-out: pGI50 (converted))?
**A.** Its GI50 is 2.09 µM.

**Q.** And the CC50 (TK-10; [11])?
**A.** The CC50 was 10.7 µM.

**Q.** And the TGI (TK-10; read-out: pTGI (converted))?
**A.** Its TGI is 4.57 µM.

**Q.** What about the growth at 0.1 µM (SNB-75) of the same compound?
**A.** The growth at 0.1 µM was 78%.

**Q.** What about the growth at 100 µM (Malme-3M [2]) of the same compound?
**A.** Its growth at 100 µM is 72%.

**Q.** What about the growth at 0.1 µM (Malme-3M [3]) of the same compound?
**A.** Its growth at 0.1 µM is 94%.

**Q.** What about the growth at 100 µM (SK-OV-3) of the same compound?
**A.** Its growth at 100 µM is 86%.

**Q.** What about the growth at 0.01 µM (RXF 393) of the same compound?
**A.** The growth at 0.01 µM was 106%.

**Q.** What about the GI50 (NCI-H522; read-out: GI50) of the same compound?
**A.** Its GI50 is 2.06 µM.

**Q.** And the CC50 (NCI-H522; [10])?
**A.** Its CC50 is over 1 µM.

**Q.** And the TGI (NCI-H522; read-out: TGI)?
**A.** The TGI was 5.04 µM.

**Q.** What about the GI50 (NCI-H522; read-out: pGI50 (converted)) of the same compound?
**A.** The GI50 was 2.04 µM.

**Q.** What about the CC50 (NCI-H522; [11]) of the same compound?
**A.** The CC50 was over 100 µM.

**Q.** What about the TGI (NCI-H522; read-out: pTGI (converted)) of the same compound?
**A.** The TGI was 5.01 µM.

**Q.** And the growth at 0.1 µM (A498)?
**A.** Its growth at 0.1 µM is 83%.

**Q.** What about the growth at 0.1 µM (SF-539) of the same compound?
**A.** The growth at 0.1 µM was 98%.

**Q.** What about the growth at 0.1 µM (SR [4]) of the same compound?
**A.** Its growth at 0.1 µM is 93%.

**Q.** And the growth at 1 µM (HCT-15)?
**A.** The growth at 1 µM was 93%.

**Q.** And the growth at 0.1 µM (SNB-19)?
**A.** Its growth at 0.1 µM is 96%.

**Q.** And the GI50 (OVCAR-3; read-out: GI50)?
**A.** Its GI50 is 1.8 µM.

**Q.** And the CC50 (OVCAR-3; [10])?
**A.** Its CC50 is 7.36 µM.

**Q.** What about the TGI (OVCAR-3; read-out: TGI) of the same compound?
**A.** Its TGI is 3.64 µM.

**Q.** What about the GI50 (OVCAR-3; read-out: pGI50 (converted)) of the same compound?
**A.** The GI50 was 1.82 µM.

**Q.** What about the CC50 (OVCAR-3; [11]) of the same compound?
**A.** The CC50 was 7.41 µM.

**Q.** And the TGI (OVCAR-3; read-out: pTGI (converted))?
**A.** Its TGI is 3.63 µM.

**Q.** What about the growth at 100 µM (SR [5]) of the same compound?
**A.** The growth at 100 µM was 34%.

**Q.** What about the growth at 0.1 µM (Hs-578T) of the same compound?
**A.** Its growth at 0.1 µM is 100%.

**Q.** What about the GI50 (A549 [6]; read-out: GI50) of the same compound?
**A.** Its GI50 is 4.15 µM.

**Q.** And the LC50 (concentration killing 50% of starting cells) (A549 [6]; read-out: LC50)?
**A.** The LC50 (concentration killing 50% of starting cells) was 7.98 µM.

**Q.** And the GI50 (A549 [6]; read-out: pGI50 (converted))?
**A.** The GI50 was 4.17 µM.

**Q.** And the LC50 (concentration killing 50% of starting cells) (A549 [6]; read-out: pLC50 (converted))?
**A.** Its LC50 (concentration killing 50% of starting cells) is 79.4 µM.

**Q.** What about the TGI (A549 [6]; read-out: pTGI (converted)) of the same compound?
**A.** The TGI was 18.6 µM.

**Q.** And the growth at 0.01 µM (LOX IMVI)?
**A.** The growth at 0.01 µM was 93%.

**Q.** And the growth at 0.01 µM (A549 [7])?
**A.** Its growth at 0.01 µM is 98%.

**Q.** What about the growth at 0.01 µM (EKVX [8]) of the same compound?
**A.** The growth at 0.01 µM was 94%.

**Q.** And the growth at 100 µM (EKVX [9])?
**A.** Its growth at 100 µM is 44%.
